Values quoted from earlier work in patent US20240082224A1, “METHODS OF TREATING HEMATOLOGICAL MALIGNANCY USING NANOPARTICLE MTOR INHIBITOR COMBINATION THERAPY” (Abraxis BioScience, LLC, priority 2015, published 2024).

Columns and labels:
[1] = in vivo
ABCB1 = ABCB1 (Homo sapiens, UniProt P08183)
ABCG2 = target: T1, ABCG2 (Homo sapiens, UniProt Q9UNQ0)
T1 sequence (Q9UNQ0 1-655): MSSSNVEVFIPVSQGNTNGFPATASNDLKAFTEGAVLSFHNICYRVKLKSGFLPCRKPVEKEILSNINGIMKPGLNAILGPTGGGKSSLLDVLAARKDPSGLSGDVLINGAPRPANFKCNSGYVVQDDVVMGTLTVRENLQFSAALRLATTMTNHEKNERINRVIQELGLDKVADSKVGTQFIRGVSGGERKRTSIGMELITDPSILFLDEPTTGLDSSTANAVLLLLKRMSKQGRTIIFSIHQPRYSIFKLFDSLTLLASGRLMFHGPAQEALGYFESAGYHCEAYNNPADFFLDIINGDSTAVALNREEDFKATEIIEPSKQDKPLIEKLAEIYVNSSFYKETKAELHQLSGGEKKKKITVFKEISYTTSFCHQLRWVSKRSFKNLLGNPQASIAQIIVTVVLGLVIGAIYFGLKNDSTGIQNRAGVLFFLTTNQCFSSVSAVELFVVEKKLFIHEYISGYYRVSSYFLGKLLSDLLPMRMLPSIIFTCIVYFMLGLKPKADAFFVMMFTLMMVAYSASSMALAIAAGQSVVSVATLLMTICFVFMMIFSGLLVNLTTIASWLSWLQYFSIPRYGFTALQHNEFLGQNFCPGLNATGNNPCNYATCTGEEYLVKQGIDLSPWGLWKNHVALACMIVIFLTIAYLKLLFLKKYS

Sequence of ABCB1 (P08183 whole entry, species assumed): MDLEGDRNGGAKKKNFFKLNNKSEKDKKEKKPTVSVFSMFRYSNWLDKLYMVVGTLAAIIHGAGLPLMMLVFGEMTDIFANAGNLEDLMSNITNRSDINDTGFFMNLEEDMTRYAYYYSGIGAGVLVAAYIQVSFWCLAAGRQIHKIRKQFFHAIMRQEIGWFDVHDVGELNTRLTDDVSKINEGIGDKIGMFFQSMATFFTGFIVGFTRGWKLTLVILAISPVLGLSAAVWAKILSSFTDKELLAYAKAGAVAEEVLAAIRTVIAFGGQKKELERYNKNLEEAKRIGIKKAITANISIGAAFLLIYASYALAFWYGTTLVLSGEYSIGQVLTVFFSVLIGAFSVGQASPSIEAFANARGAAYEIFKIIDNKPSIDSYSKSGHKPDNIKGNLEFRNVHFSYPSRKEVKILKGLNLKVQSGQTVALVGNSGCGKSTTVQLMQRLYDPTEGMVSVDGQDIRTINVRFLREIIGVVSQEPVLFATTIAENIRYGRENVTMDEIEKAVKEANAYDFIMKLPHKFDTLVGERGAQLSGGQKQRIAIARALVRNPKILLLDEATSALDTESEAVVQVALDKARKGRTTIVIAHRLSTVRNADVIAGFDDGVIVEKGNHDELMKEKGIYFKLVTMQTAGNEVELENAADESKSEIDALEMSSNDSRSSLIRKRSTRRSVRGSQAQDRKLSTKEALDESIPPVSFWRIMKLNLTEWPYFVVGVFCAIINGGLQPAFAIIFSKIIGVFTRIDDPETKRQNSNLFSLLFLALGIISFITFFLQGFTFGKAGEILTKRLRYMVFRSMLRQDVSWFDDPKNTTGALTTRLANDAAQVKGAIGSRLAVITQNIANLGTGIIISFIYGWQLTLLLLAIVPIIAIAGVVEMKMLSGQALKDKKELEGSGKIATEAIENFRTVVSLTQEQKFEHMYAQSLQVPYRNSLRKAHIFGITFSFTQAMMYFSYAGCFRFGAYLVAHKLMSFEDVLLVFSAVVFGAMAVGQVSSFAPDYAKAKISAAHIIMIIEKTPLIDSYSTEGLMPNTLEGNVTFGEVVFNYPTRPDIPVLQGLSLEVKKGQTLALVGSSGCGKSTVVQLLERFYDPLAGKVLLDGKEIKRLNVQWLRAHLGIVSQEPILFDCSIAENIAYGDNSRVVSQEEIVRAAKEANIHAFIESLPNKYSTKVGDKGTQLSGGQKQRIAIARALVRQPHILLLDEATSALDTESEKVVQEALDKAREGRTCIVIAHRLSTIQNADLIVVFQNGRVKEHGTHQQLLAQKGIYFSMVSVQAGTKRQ

Row | SMILES | brain penetration [1] | affinity for ABCB1 (ABCB1) | affinity for ABCG2 (ABCG2) | CML patients who respond (CML patients; imatinib) | patients progressing to advanced disease (CML patients; within 5 years)
1 | COc1ccc(COc2cc3oc(=O)c4cc(C(C)O)ccc4c3cc2OC)cc1 (centres unmarked) [Palomid 529] | good brain penetration | lacks affinity | lacks affinity |  | 
2 | Cc1ccc(NC(=O)c2ccc(CN3CCN(C)CC3)cc2)cc1Nc1nccc(-c2cccnc2)n1 [imatinib] |  |  |  | 80% | under 3%
